This is an account of results in patent US11236059B2, “Targeted cytotoxic ratjadone derivatives and conjugates thereof” (HELMHOLTZ-ZENTRUM FUER INFEKTIONSFORSCHUNG GMBH, priority 2017, dated 2022).

The test system of the assay is KB 3.1 (DSMZ ACC 158) cells. In words: Cell proliferation assay under folate free conditions. The assay is classed as cell-based. Conditions: RPMI-medium without folic acid + 10% dialyzed fetal calf serum; MTT assay after 1, 2 and 5 days (day of the value not given); read-out: IC50 [nM] KB 3.1 (Folate-Ratjadone Conjugates). The procedure: KB 3.1 (DSMZ ACC 158) cells were cultivated at 37° C. and 10% C002 in RMPI-medium without folic acid (Gibco) with 10% fetal calf serum (Gibco). 120 μL of suspended cells (100.000/mL) were seeded in wells of 96-well plates and after 24 h at 37° C. and 10% CO2 the medium was removed, the cells were washed with PBS and RPMI-medium without folic acid (Gibco)+10% dialyzed fetal calf serum (Sigma) were added to the cells, before after additional 24 h at 37° C. and 10% C002 60 μL of serial dilutions of the test compound were given to cells. After 1, 2 and 5 days of incubation growth inhibition (IC50) was determined using an MTT assay.^[64]
(Tetrazolium dyes change colour on reduction, which living cells bring about.)
As a reminder, the IC50 is the concentration that inhibits the measured activity by half. As to `C/C=C/[C@@H]1O[C@H]([C@@H](/C=C/C=C(\C)C[C@@H](C)/C=C(C)\C=C\[C@H]2CC=CC(=O)O2)NC(=O)OCc2ccc(NC(=O)[C@H](CCCNC(N)=O)NC(=O)[C@@H](NC(=O)OC[C@@H]3[C@@H]4CCc5nnn(CCC[C@H](NC(=O)[C@@H](CC(=O)O)NC(=O)[C@@H](CC(=O)O)NC(=O)[C@H](CCCn6nnc7c6CC[C@H]6[C@@H](CC7)[C@H]6COC(=O)N[C@H](C(=O)N[C@@H](CCCNC(N)=O)C(=O)Nc6ccc(COC(=O)N[C@H](/C=C/C=C(\C)C[C@@H](C)/C=C(C)\C=C\[C@H]7CC=CC(=O)O7)[C@@H]7C[C@@H](O)[C@H](C)[C@H](/C=C/C)O7)cc6)C(C)C)NC(=O)[C@@H](CC(=O)O)NC(=O)[C@@H](CC(=O)O)NC(=O)[C@H](CCCn6nnc7c6CC[C@H]6[C@@H](CC7)[C@H]6COC(=O)N[C@H](C(=O)N[C@@H](CCCNC(N)=O)C(=O)Nc6ccc(COC(=O)N[C@H](/C=C/C=C(\C)C[C@@H](C)/C=C(C)\C=C\[C@H]7CC=CC(=O)O7)[C@@H]7C[C@@H](O)[C@H](C)[C@H](/C=C/C)O7)cc6)C(C)C)NC(=O)[C@@H](CC(=O)O)NC(=O)[C@@H](CC(=O)O)NC(=O)CC[C@H](NC(=O)c6ccc(NCc7cnc8nc(N)nc(O)c8n7)cc6)C(=O)O)C(=O)O)c5CC[C@@H]43)C(C)C)cc2)C[C@@H](O)[C@@H]1C` [FA-11-(Val-Cit-PABA-16R-Aminoratjadone)3], the IC50 stood at 45 nM.
The value for `C/C=C/[C@@H]1O[C@H]([C@@H](/C=C/C=C(\C)C[C@@H](C)/C=C(C)\C=C\[C@H]2CC=CC(=O)O2)NC(=O)OCCc2cn(CCC[C@H](NC(=O)CC[C@H](NC(=O)CC[C@H](NC(=O)c3ccc(NCc4cnc5nc(N)nc(O)c5n4)cc3)C(=O)O)C(=O)O)C(=O)O)nn2)C[C@@H](O)[C@@H]1C` [FA-7-16R-Aminoratjadone, N^2-(4-(((2-amino-4-hydroxypteridin-6-yl)methyl)amino)benzoyl)-N^5—((S)-1-carboxy-4-(((S)-1-carboxy-4-(4-(2-((((1R,2E,4E,7R,8Z,10E)-1-((2S,4R,5S,6S)-4-hydroxy-5-methyl-6-((E)-prop-1-en-1-yl)tetrahydro-2H-pyran-2-yl)-5,7,9-trimethyl-11-((R)-6-oxo-3,6-dihydro-2H-pyran-2-yl)undeca-2,4,8,10-tetraen-1-yl)carbamoyl)oxy)ethyl)-1H-1,2,3-triazol-1-yl)butyl)amino)-4-oxobutyl)-L-glutamine] was 190 nM; that for `C/C=C/[C@@H]1O[C@H]([C@@H](/C=C/C=C(\C)C[C@@H](C)/C=C(C)\C=C\[C@H]2CC=CC(=O)O2)NC(=O)CCSSC[C@H](NC(=O)CC[C@H](NC(=O)c2ccc(NCc3cnc4nc(N)nc(O)c4n3)cc2)C(=O)O)C(=O)O)C[C@@H](O)[C@@H]1C` [FA-SS-16R-Aminoratjadone, N^2-(4-(((2-amino-4-hydroxypteridin-6-yl)methyl)amino)benzoyl)-N^5-((R)-1-carboxy-2-((3-(((1R,2E,4E,7R,8Z,10E)-1-((2S,4R,5S,6S)-4-hydroxy-5-methyl-6-((E)-prop-1-en-1-yl)tetrahydro-2H-pyran-2-yl)-5,7,9-trimethyl-11-((R)-6-oxo-3,6-dihydro-2H-pyran-2-yl)undeca-2,4,8,10-tetraen-1-yl)amino)-3-oxopropyl)disulfaneyl)ethyl)-L-glutamine] was 295 nM; that for `C/C=C/[C@@H]1O[C@H]([C@@H](/C=C/C=C(\C)C[C@@H](C)/C=C(C)\C=C\[C@H]2CC=CC(=O)O2)NC(=O)OCc2ccc(NC(=O)[C@H](CCCNC(N)=O)NC(=O)[C@@H](NC(=O)OC[C@@H]3[C@@H]4CCc5nnn(CCC[C@H](NC(=O)[C@@H](CC(=O)O)NC(=O)[C@@H](CC(=O)O)NC(=O)[C@@H](CC(=O)O)NC(=O)CC[C@H](NC(=O)c6ccc(NCc7cnc8nc(N)nc(O)c8n7)cc6)C(=O)O)C(=O)N[C@H](CC(=O)O)C(=O)N[C@H](CC(=O)O)C(=O)N[C@H](CCCCN)C(=O)O)c5CC[C@@H]43)C(C)C)cc2)C[C@@H](O)[C@@H]1C` [FA-10-Val-Cit-PABA-16R-Aminoratjadone] was 35.3 nM.
Consider `C/C=C/[C@@H]1O[C@H]([C@@H](/C=C/C=C(\C)C[C@@H](C)/C=C(C)\C=C\[C@H]2CC=CC(=O)O2)NC(=O)OCCc2cn(CCC[C@H](NC(=O)[C@@H](CC(=O)O)NC(=O)[C@@H](CC(=O)O)NC(=O)[C@@H](CC(=O)O)NC(=O)[C@@H](CC(=O)O)NC(=O)[C@@H](CC(=O)O)NC(=O)CC[C@H](NC(=O)c3ccc(NCc4cnc5nc(N)nc(O)c5n4)cc3)C(=O)O)C(=O)O)nn2)C[C@@H](O)[C@@H]1C` [FA-5-16R-Aminoratjadone], for which the IC50 amounted to 50.3 nM.
Take `C/C=C/[C@@H]1O[C@H]([C@@H](/C=C/C=C(\C)C[C@@H](C)/C=C(C)\C=C\[C@H]2CC=CC(=O)O2)NC(=O)OCCc2cn(-c3ccc(C(=O)NCCCC[C@H](NC(=O)CC[C@H](NC(=O)CC[C@H](NC(=O)c4ccc(NCc5cnc6nc(N)nc(O)c6n5)cc4)C(=O)O)C(=O)O)C(=O)O)cc3)nn2)C[C@@H](O)[C@@H]1C` [FA-6-16R-Aminoratjadone, (3S,8S,13S)-1-(4-(((2-amino-4-hydroxypteridin-6-yl)methyl)amino)phenyl)-19-(4-(4-(2-((((1R,2E,4E,7R,8Z,10E)-1-((2S,4R,5S,6S)-4-hydroxy-5-methyl-6-((E)-prop-1-en-1-yl)tetrahydro-2H-pyran-2-yl)-5,7,9-trimethyl-1-((R)-6-oxo-3,6-dihydro-2H-pyran-2-yl)undeca-2,4,8,10-tetraen-1-yl)carbamoyl)oxy)ethyl)-1H-1,2,3-triazol-1-yl)phenyl)-1,6,11,19-tetraoxo-2,7,12,18-tetraazanonadecane-3,8,13-tricarboxylic acid]: the half-maximal inhibitory concentration (IC50) stood at 150 nM.
The value for `C/C=C/[C@@H]1O[C@H]([C@@H](/C=C/C=C(\C)C[C@@H](C)/C=C(C)\C=C\[C@H]2CC=CC(=O)O2)NC(=O)OCCc2cn(CCC[C@H](NC(=O)CC[C@H](NC(=O)c3ccc(NCc4cnc5nc(N)nc(O)c5n4)cc3)C(=O)O)C(=O)N[C@H](CCCCN)C(=O)O)nn2)C[C@@H](O)[C@@H]1C` [FA-9-16R-Aminoratjadone, ((S)-2-((S)-4-(4-(((2-amino-4-hydroxypteridin-6-yl)methyl)amino)benzamido)-4-carboxybutanamido)-5-(4-(2-((((1R,2E,4E,7R,8Z,10E)-1-((2S,4R,5S,6S)-4-hydroxy-5-methyl-6-((E)-prop-1-en-1-yl)tetrahydro-2H-pyran-2-yl)-5,7,9-trimethyl-11-((R)-6-oxo-3,6-dihydro-2H-pyran-2-yl)undeca-2,4,8,10-tetraen-1-yl)carbamoyl)oxy)ethyl)-1H-1,2,3-triazol-1-yl)pentanoyl)-D-lysine] was 47.6 nM; that for `C/C=C/[C@@H]1O[C@H]([C@@H](/C=C/C=C(\C)C[C@@H](C)/C=C(C)\C=C\[C@H]2CC=CC(=O)O2)NC(=O)OCc2ccc(NC(=O)[C@H](CCCNC(N)=O)NC(=O)[C@@H](NC(=O)OC[C@@H]3[C@@H]4CCc5nnn(CCC[C@H](NC(=O)CC[C@H](NC(=O)c6ccc(NCc7cnc8nc(N)nc(O)c8n7)cc6)C(=O)O)C(=O)N[C@H](CCCCN)C(=O)O)c5CC[C@@H]43)C(C)C)cc2)C[C@@H](O)[C@@H]1C` [FA-9-Val-Cit-PABA-16R-Aminoratjadone] was 50.9 nM; that for `C/C=C/[C@@H]1O[C@H]([C@@H](/C=C/C=C(\C)C[C@@H](C)/C=C(C)\C=C\[C@H]2CC=CC(=O)O2)NC(=O)OCc2ccc(NC(=O)[C@H](CCCNC(N)=O)NC(=O)[C@@H](NC(=O)OC[C@@H]3[C@@H]4CCc5nnn(-c6ccc(C(=O)NCCCC[C@H](NC(=O)CC[C@H](NC(=O)CC[C@H](NC(=O)c7ccc(NCc8cnc9nc(N)nc(O)c9n8)cc7)C(=O)O)C(=O)O)C(=O)O)cc6)c5CC[C@@H]43)C(C)C)cc2)C[C@@H](O)[C@@H]1C` [FA-6-Val-Cit-PABA-16R-Aminoratjadone] was 223 nM.
The value for `C/C=C/[C@@H]1O[C@H]([C@@H](/C=C/C=C(\C)C[C@@H](C)/C=C(C)\C=C\[C@H]2CC=CC(=O)O2)NC(=O)OCc2ccc(NC(=O)[C@H](CCCNC(N)=O)NC(=O)[C@@H](NC(=O)OC[C@@H]3[C@@H]4CCc5nnn(-c6ccc(C(=O)NCCCC[C@H](NC(=O)CC[C@H](NC(=O)c7ccc(NCc8cnc9nc(N)nc(O)c9n8)cc7)C(=O)O)C(=O)N[C@H](CCCCN)C(=O)O)cc6)c5CC[C@@H]43)C(C)C)cc2)C[C@@H](O)[C@@H]1C` [FA-8-Val-Cit-PABA-16R-Aminoratjadone] was 39.9 nM.
The value for `C/C=C/[C@@H]1O[C@H](C(/C=C/C=C(\C)C[C@@H](C)/C=C\C=C(/C)[C@H]2CC=CC(=O)O2)NC(=O)OCc2ccc(NC(=O)[C@H](CCCNC(N)=O)NC(=O)[C@@H](NC(=O)OC[C@@H]3[C@@H]4CCc5nnn(-c6ccc(C(=O)NCCCC[C@H](NC(=O)[C@H](CC(=O)O)NC(=O)[C@H](CC(=O)O)NC(=O)[C@H](CCCCNC(=O)c7ccc(-n8nnc9c8CC[C@H]8[C@@H](CC9)[C@H]8COC(=O)N[C@H](C(=O)N[C@@H](CCCNC(N)=O)C(=O)Nc8ccc(COC(=O)NC(/C=C/C=C(\C)C[C@@H](C)/C=C\C=C(/C)[C@H]9CC=CC(=O)O9)[C@@H]9C[C@@H](O)[C@H](C)[C@H](/C=C/C)O9)cc8)C(C)C)cc7)NC(=O)[C@@H](CC(=O)O)NC(=O)[C@@H](CC(=O)O)NC(=O)CC[C@H](NC(=O)c7ccc(NCc8cnc9nc(N)nc(O)c9n8)cc7)C(=O)O)C(=O)O)cc6)c5CC[C@@H]43)C(C)C)cc2)C[C@@H](O)[C@@H]1C` (stereo partly drawn) [FA-4-(Val-Cit-PABA-16R-Aminoratjadone)2] was 148 nM.
